In patent US20220153746A1, “NITROGEN OXIDE-DONATING PDE-5 AND/OR PDE-6 INHIBITOR COMPOUNDS, AND USES THEREOF” (ILDONG PHARMACEUTICAL CO., LTD., priority 2020, published 2022):
Read-outs that look alike come from different tables or passages of the source.

Legend:
human PDE-6C = human PDE-6C (Homo sapiens, UniProt P51160); assay: Human PDE-6C inhibition assay (fluorescence polarization, FAM-cGMP); format: biochemical
human PDE-5A1 = human PDE-5A1 (Homo sapiens, UniProt O76074); assay: Human PDE-5A1 inhibition assay (fluorescence polarization, FAM-cGMP); format: biochemical

Chain of human PDE-6C (P51160 whole entry): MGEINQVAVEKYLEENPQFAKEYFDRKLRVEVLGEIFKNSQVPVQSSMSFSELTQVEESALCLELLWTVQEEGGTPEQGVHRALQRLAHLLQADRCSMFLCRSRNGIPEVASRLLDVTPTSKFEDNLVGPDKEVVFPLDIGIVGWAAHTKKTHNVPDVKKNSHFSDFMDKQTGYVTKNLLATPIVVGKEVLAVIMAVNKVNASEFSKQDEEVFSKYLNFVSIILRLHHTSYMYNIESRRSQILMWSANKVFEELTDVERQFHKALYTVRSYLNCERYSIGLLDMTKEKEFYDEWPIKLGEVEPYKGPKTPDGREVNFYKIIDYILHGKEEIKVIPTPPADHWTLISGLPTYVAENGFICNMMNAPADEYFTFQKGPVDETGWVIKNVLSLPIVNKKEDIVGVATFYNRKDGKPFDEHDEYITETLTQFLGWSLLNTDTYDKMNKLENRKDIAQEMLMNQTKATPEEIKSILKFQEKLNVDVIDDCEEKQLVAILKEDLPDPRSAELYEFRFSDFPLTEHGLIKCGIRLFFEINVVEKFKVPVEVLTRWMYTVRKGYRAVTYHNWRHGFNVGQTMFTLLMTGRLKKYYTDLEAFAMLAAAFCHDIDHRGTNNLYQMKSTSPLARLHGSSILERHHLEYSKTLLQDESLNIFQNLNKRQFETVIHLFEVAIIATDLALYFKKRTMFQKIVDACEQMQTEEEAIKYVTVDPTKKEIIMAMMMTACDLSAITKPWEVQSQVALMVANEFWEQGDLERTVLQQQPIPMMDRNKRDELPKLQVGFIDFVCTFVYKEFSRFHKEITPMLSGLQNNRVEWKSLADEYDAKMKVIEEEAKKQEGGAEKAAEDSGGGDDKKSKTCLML

IC50 (human PDE-6C; read-out: IC50 (μM) PDE6C) [µM]	IC50 (human PDE-5A1; read-out: IC50 (μM) PDE5A1) [µM]	SMILES	IC50 (human PDE-6C) [µM]	IC50 (human PDE-5A1) [µM]
0.01 to 0.1	0.01 to 0.1	CCCc1nn(C)c2c(=O)[nH]c(-c3cc(S(=O)(=O)N4CC(NCCCCO)C4)ccc3OCC)nc12 [Compound 11, 5-(2-ethoxy-5-((3-((4-hydroxybutyl)amino)azetidin-1-yl)sulfonyl)phenyl)-1-methyl-3-propyl-1,6-dihydro-7H-pyrazolo[4,3-d]pyrimidin-7-one]		
< 0.01	< 0.01	CCCc1nn(C)c2c(=O)[nH]c(-c3cc(S(=O)(=O)N4CC(N(C)CCO)C4)ccc3OCC)nc12 [Compound 12, 5-(2-ethoxy-5-((3-((2-hydroxyethyl)(methyl)amino)azetidin-1-yl)sulfonyl)phenyl)-1-methyl-3-propyl-1,6-dihydro-7H-pyrazolo[4,3-d]pyrimidin-7-one]		
0.01 to 0.1	< 0.01	CCCc1nn(C)c2c(=O)[nH]c(-c3cc(S(=O)(=O)N4CC(N(C)CCCO)C4)ccc3OCC)nc12 [Compound 13, 5-(2-ethoxy-5-((3-((3-hydroxypropyl)(methyl)amino)azetidin-1-yl)sulfonyl)phenyl)-1-methyl-3-propyl-1,6-dihydro-7H-pyrazolo[4,3-d]pyrimidin-7-one]		
< 0.01	< 0.01	CCCc1nn(C)c2c(=O)[nH]c(-c3cc(S(=O)(=O)N4CC(N(C)CCCCO)C4)ccc3OCC)nc12 [Compound 14, 5-(2-ethoxy-5-((3-((4-hydroxybutyl)(methyl)amino)azetidin-1-yl)sulfonyl)phenyl)-1-methyl-3-propyl-1,6-dihydro-7H-pyrazolo[4,3-d] pyrimidin-7-one]		
0.01 to 0.1	0.01 to 0.1	CCCc1nn(C)c2c(=O)[nH]c(-c3cc(S(=O)(=O)N4CC(O[N+](=O)[O-])C4)ccc3OCC)nc12 [Compound 15, 1-((4-ethoxy-3-(1-methyl-7-oxo-3-propyl-6,7-dihydro-1H-pyrazolo[4,3-d]pyrimidin-5-yl)phenyl)sulfonyl) azetidin-3-yl nitrate]		
0.01 to 0.1	< 0.01	CCCc1nn(C)c2c(=O)[nH]c(-c3cc(S(=O)(=O)N4CC(CO[N+](=O)[O-])C4)ccc3OCC)nc12 [Compound 16, (1-((4-ethoxy-3-(1-methyl-7-oxo-3-propyl-6,7-dihydro-1H-pyrazolo[4,3-d]pyrimidin-5-yl)phenyl)sulfonyl)azetidin-3-yl)methyl nitrate]		
< 0.01	< 0.01	CCCc1nn(C)c2c(=O)[nH]c(-c3cc(S(=O)(=O)NC4CN(CCO[N+](=O)[O-])C4)ccc3OCC)nc12 [Compound 19, 2-(3-((4-ethoxy-3-(1-methyl-7-oxo-3-propyl-6,7-dihydro-1H-pyrazolo[4,3-d]pyrimidin-5-yl)phenyl)sulfonamido)azetidin-1-yl)ethyl nitrate]		
< 0.01	0.01 to 0.1	CCCc1nn(C)c2c(=O)[nH]c(-c3cc(S(=O)(=O)NC4CN(CCCO[N+](=O)[O-])C4)ccc3OCC)nc12 [Compound 20, 3-(3-((4-ethoxy-3-(1-methyl-7-oxo-3-propyl-6,7-dihydro-1H-pyrazolo[4,3-d]pyrimidin-5-yl)phenyl)sulfonamido)azetidin-1-yl)propyl nitrate]		
< 0.01	< 0.01	CCCc1nn(C)c2c(=O)[nH]c(-c3cc(S(=O)(=O)N4CC(NCCO[N+](=O)[O-])C4)ccc3OCC)nc12 [Compound 21, 2-((1-((4-ethoxy-3-(1-methyl-7-oxo-3-propyl-6,7-dihydro-1H-pyrazolo[4,3-d]pyrimidin-5-yl)phenyl)sulfonyl)azetidin-3-yl)amino)ethyl nitrate]		
< 0.01	< 0.01	CCCc1nn(C)c2c(=O)[nH]c(-c3cc(S(=O)(=O)N4CC(N(C)CCO[N+](=O)[O-])C4)ccc3OCC)nc12 [Compound 23, 2-((1-((4-ethoxy-3-(1-methyl-7-oxo-3-propyl-6,7-dihydro-1H-pyrazolo[4,3-d]pyrimidin-5-yl)phenyl)sulfonyl)azetidin-3-yl)(methyl)amino)ethyl nitrate]		
< 0.01	0.01 to 0.1	CCCc1nn(C)c2c(=O)[nH]c(-c3cc(S(=O)(=O)N4CC(N(C)CCCO[N+](=O)[O-])C4)ccc3OCC)nc12 [Compound 24, 3-((1-((4-ethoxy-3-(1-methyl-7-oxo-3-propyl-6,7-dihydro-1H-pyrazolo[4,3-d]pyrimidin-5-yl)phenyl)sulfonyl)azetidin-3-yl)(methyl)amino)propyl nitrate]		
0.01 to 0.1	0.01 to 0.1	CCCc1nn(C)c2c(=O)[nH]c(-c3cc(S(=O)(=O)N4CC(OCCO)C4)ccc3OCC)nc12 [Compound 25, 5-(2-ethoxy-5-((3-(2-hydroxyethoxy)azetidin-1-yl)sulfonyl)phenyl)-1-methyl-3-propyl-1,6-dihydro-7H-pyrazolo[4,3-d] pyrimidin-7-one]		
0.01 to 0.1	0.01 to 0.1	CCCc1nn(C)c2c(=O)[nH]c(-c3cc(S(=O)(=O)N4CC(OCCCO)C4)ccc3OCC)nc12 [Compound 26, 5-(2-ethoxy-5-((3-(3-hydroxypropoxy)azetidin-1-yl)sulfonyl)phenyl)-1-methyl-3-propyl-1,6-dihydro-7H-pyrazolo[4,3-d]pyrimidin-7-one]		
0.01 to 0.1	0.01 to 0.1	CCCc1nn(C)c2c(=O)[nH]c(-c3cc(S(=O)(=O)N4CC(CN5CC(CO)C5)C4)ccc3OCC)nc12 [Compound 28, 5-(2-ethoxy-5-((3-((3-(hydroxymethyl)azetidin-1-yl)methyl)azetidin-1-yl)sulfonyl)phenyl)-1-methyl-3-propyl-1,6-dihydro-7H-pyrazolo[4,3-d] pyrimidin-7-one]		
0.01 to 0.1	0.01 to 0.1	CCCc1nn(C)c2c(=O)[nH]c(-c3cc(S(=O)(=O)N4CC(CN5CC(CCO)C5)C4)ccc3OCC)nc12 [Compound 29, 5-(2-ethoxy-5-((3-((3-(2-hydroxyethyl)azetidin-1-yl)methyl)azetidin-1-yl)sulfonyl)phenyl)-1-methyl-3-propyl-1,6-dihydro-7H-pyrazolo[4,3-d]pyrimidin-7-one]		
< 0.01	< 0.01	CCCc1nn(C)c2c(=O)[nH]c(-c3cc(S(=O)(=O)N4CC(N(CCCO)CCCO)C4)ccc3OCC)nc12 [Compound 30, 5-(5-((3-(bis(3-hydroxypropyl)amino)azetidin-1-yl)sulfonyl)-2-ethoxyphenyl)-1-methyl-3-propyl-1,6-dihydro-7H-pyrazolo[4,3-d]pyrimidin-7-one]		
< 0.01	0.01 to 0.1	CCCc1nn(C)c2c(=O)[nH]c(-c3cc(S(=O)(=O)N4CC(N5CC(O)C5)C4)ccc3OCC)nc12 [Compound 31, 5-(2-ethoxy-5-((3-hydroxy-[1,3′-biazetidin]-1′-yl)sulfonyl)phenyl)-1-methyl-3-propyl-1,6-dihydro-7H-pyrazolo [4,3-d]pyrimidin-7-one]		
0.01 to 0.1	< 0.01	CCCc1nn(C)c2c(=O)[nH]c(-c3cc(S(=O)(=O)N4CC(N5CC(CO)C5)C4)ccc3OCC)nc12 [Compound 32, 5-(2-ethoxy-5-((3-(hydroxymethyl)-[1,3′-biazetidin]-1′-yl)sulfonyl)phenyl)-1-methyl-3-propyl-1,6-dihydro-7H-pyrazolo[4,3-d]pyrimidin-7-one]		
< 0.01	< 0.01	CCCc1nn(C)c2c(=O)[nH]c(-c3cc(S(=O)(=O)N4CC(N5CC(CCO)C5)C4)ccc3OCC)nc12 [Compound 33, 5-(2-ethoxy-5-((3-(2-hydroxyethyl)-[1,3′-biazetidin]-1′-yl)sulfonyl)phenyl)-1-methyl-3-propyl-1,6-dihydro-7H-pyrazolo[4,3-d]pyrimidin-7-one]		
< 0.01	0.01 to 0.1	CCCc1nn(C)c2c(=O)[nH]c(-c3cc(S(=O)(=O)N4CC(OCCO[N+](=O)[O-])C4)ccc3OCC)nc12 [Compound 34, 2-((1-((4-ethoxy-3-(1-methyl-7-oxo-3-propyl-6,7-dihydro-1H-pyrazolo[4,3-d]pyrimidin-5-yl)phenyl)sulfonyl)azetidin-3-yl)oxy)ethyl nitrate]		
< 0.01	0.01 to 0.1	CCCc1nn(C)c2c(=O)[nH]c(-c3cc(S(=O)(=O)N4CC(OCCCO[N+](=O)[O-])C4)ccc3OCC)nc12 [Compound 35, 3-((1-((4-ethoxy-3-(1-methyl-7-oxo-3-propyl-6,7-dihydro-1H-pyrazolo[4,3-d]pyrimidin-5-yl)phenyl)sulfonyl)azetidin-3-yl)oxy)propyl nitrate]		
0.01 to 0.1	0.01 to 0.1	CCCc1nn(C)c2c(=O)[nH]c(-c3cc(S(=O)(=O)N4CC(OCCCCO[N+](=O)[O-])C4)ccc3OCC)nc12 [Compound 36, 4-((1-((4-ethoxy-3-(1-methyl-7-oxo-3-propyl-6,7-dihydro-1H-pyrazolo[4,3-d]pyrimidin-5-yl)phenyl)sulfonyl)azetidin-3-yl)oxy)butyl nitrate]		
0.01 to 0.1	0.01 to 0.1	CCCc1nn(C)c2c(=O)[nH]c(-c3cc(S(=O)(=O)N4CC(CN5CC(CO[N+](=O)[O-])C5)C4)ccc3OCC)nc12 [Compound 37, (1-((1-((4-ethoxy-3-(1-methyl-7-oxo-3-propyl-6,7-dihydro-1H-pyrazolo[4,3-d]pyrimidin-5-yl)phenyl)sulfonyl)azetidin-3-yl)methyl)azetidin-3-yl)methyl nitrate]		
		CCCc1nn(C)c2c(=O)[nH]c(-c3cc(S(=O)(=O)N4CC(N(CCCO[N+](=O)[O-])CCCO[N+](=O)[O-])C4)ccc3OCC)nc12 [Compound 38, ((1-((4-ethoxy-3-(1-methyl-7-oxo-3-propyl-6,7-dihydro-1H-pyrazolo[4,3-d]pyrimidin-5-yl)phenyl)sulfonyl)azetidin-3-yl)azanediyl)bis(propane-3,1-diyl) dinitrate]	0.01 to 0.1	0.01 to 0.1

SMILES	IC50 (human PDE-6C; read-out: IC50 (μM) PDE6C) [µM]	IC50 (human PDE-5A1; read-out: IC50 (μM) PDE5A1) [µM]	IC50 (human PDE-6C) [µM]	IC50 (human PDE-5A1) [µM]
CCCc1nn(C)c2c(=O)[nH]c(-c3cc(S(=O)(=O)N4CC(OCCCCO)C4)ccc3OCC)nc12 [Compound 27, 5-(2-ethoxy-5-((3-(4-hydroxybutoxy)azetidin-1-yl)sulfonyl)phenyl)-1-methyl-3-propyl-1,6-dihydro-7H-pyrazolo[4,3-d]pyrimidin-7-one]	< 0.01	0.01 to 0.1		
